# Data reported in patent publication US12121522B2, “Methods of treating cancer with an mTOR inhibitor” (Revolution Medicines, Inc., priority 2022, dated 2024).
# Tested on: mTORC2 activity (phosphorylation of Akt at Ser473)
# Assay: Cellular selectivity mTORC1 over mTORC2 (p4EBP1 vs pAkt)
# Format: cell-based, human
# Text: The in vitro profile of RMC-5552 was characterized using standard biochemical and cellular assays to determine the mode of interaction with mTORC1 and mTORC2. The effect of RMC-5552 on established cellular readouts for mTORC1 activity (including phosphorylation of P70S6K at Thr389 and 4EBP1 at Thr37/46), mTORC2 activity (including phosphorylation of Akt at Ser473), and cellular proliferation was monitored.
# RMC-5552 binds to the intracellular protein FKBP12 and engages the FRB allosteric site and the ATP binding site on the mTORC1 complex, leading to inhibition of mTOR kinase activity.
smiles,measurement,value
CO[C@H]1C[C@@H]2CC[C@@H](C)[C@@](O)(O2)C(=O)C(=O)N2CCCC[C@H]2C(=O)O[C@H]([C@H](C)C[C@@H]2CC[C@@H](OC(=O)NCCOCCOCCOCCOCCOCCOCCOCCOCCC(=O)NCCS(=O)(=O)c3ccc(C(=O)N4CCOc5ccc(-c6ccc(N)nc6)cc5C4)c(C)c3F)[C@H](OC)C2)C[C@@H](O)[C@H](C)/C=C(\C)[C@@H](O)[C@@H](OC)C(=O)[C@H](C)C[C@H](C)/C=C/C=C/C=C/1C [RMC-6272],selective inhibition of mTORC1 over mTORC2,> 10 fold
